Measurements as given in ChEMBL document CHEMBL4038351, “Structure-Guided Development of Covalent and Mutant-Selective Pyrazolopyrimidines to Target T790M Drug Resistance in Epidermal Growth Factor Receptor” (J Med Chem, 2017).
Values after ≈ are worked out from the molar mass of the structure shown. Active and inactive are the calls of the source. The rule behind the calls is not given here.

Tests used:
A-431 [1] = test: cells; type: ADME, cell-based; details: Homo sapiens
Description: Antiproliferative activity against human A431 cells expressing wild type EGFR incubated for 96 hrs measured on day 5 by CellTiterGlo assay

HCC827 [2] = test: cells; type: functional, cell-based; details: Homo sapiens
Description: Antiproliferative activity against human HCC827 cells harboring EGFR-delE746_A750 mutant incubated for 96 hrs measured on day 5 by CellTiterGlo assay

NCI-H1975 [3] = test: cells; type: functional, cell-based; details: Homo sapiens
[4] = Permeability of the compound at 500 uM incubated for 20 hrs by PAMPA; type: physicochemical
[5] = Metabolic stability in human plasma at 5 uM incubated for 1 hr by LC-MS method; type: ADME, cell-free; details: read-out: Stability
[6] = Metabolic stability in mouse plasma at 5 uM incubated for 1 hr by LC-MS method; type: ADME, cell-free; details: read-out: Stability
[7] = Fraction unbound in mouse 100% plasma at 5 uM incubated for 6 hrs by LC-MS method; type: ADME, cell-free
A549 [8] = test: Antiproliferative activity against human A549 cells harboring KRAS-G12S mutant at 30 uM incubated for 96 hrs measured on day 5 by CellTiterGlo assay; type: cell-based; details: a549, 96 h
[9] = Kinetic solubility in Hepes buffer at 500 uM at pH 7.4 after 90 mins; type: physicochemical; details: read-out: Kinetic_solubility
[10] = tested on: Epidermal growth factor receptor (Homo sapiens), P00533 [L858R,T790M]; test: Covalent binding affinity to human recombinant GST-tagged EGFR L858R/T790M double mutant expressed in baculovirus expression system by mass spectrometry
[11] = biological target: Epidermal growth factor receptor (Homo sapiens, UniProt P00533)
[12] = biological target: Epidermal growth factor receptor (Homo sapiens, UniProt P00533, L858R/T790M)
in vitro [13] = details: mouse, liver microsomes
in vitro [14] = details: human, liver microsomes
[15] = Apparent permeability across apical to basolateral side in human Caco2 cells at 5 uM incubated for 2 hrs; type: ADME, cell-based, Caco-2; details: Caco-2
[16] = Apparent permeability across basolateral to apical side in human Caco2 cells at 5 uM incubated for 2 hrs; type: ADME, cell-based, Caco-2; details: Caco-2
A549 [17] = test: cells; type: ADME, cell-based; details: Homo sapiens
Description: Antiproliferative activity against human A549 cells harboring KRAS-G12S mutant incubated for 96 hrs measured on day 5 by CellTiterGlo assay

[18] = Volume of distribution at steady state in RjOrl:SWISS (CD1) mouse plasma at 2 mg/kg, iv; type: ADME, organism-based; details: read-out: Vdss
[19] = Clearance in RjOrl:SWISS (CD1) mouse plasma at 2 mg/kg, iv; type: ADME, organism-based
[20] = AUC in RjOrl:SWISS (CD1) mouse plasma at 2 mg/kg, iv; type: ADME, organism-based
[21] = Initial concentration in RjOrl:SWISS (CD1) mouse plasma at 2 mg/kg, iv; type: ADME, organism-based
[22] = Half life in RjOrl:SWISS (CD1) mouse plasma at 2 mg/kg, iv; type: ADME, organism-based
[23] = Half life in RjOrl:SWISS (CD1) mouse plasma at 20 mg/kg, ip; type: ADME, organism-based
[24] = Total Cmax in RjOrl:SWISS (CD1) mouse plasma at 20 mg/kg, ip; type: ADME, organism-based; set-up: dose 20 mg/kg, route intraperitoneal
[25] = AUC in RjOrl:SWISS (CD1) mouse plasma at 20 mg/kg, ip; type: ADME, organism-based
Mus musculus [26] = test: Bioavailability in RjOrl:SWISS (CD1) mouse plasma at 20 mg/kg, ip; type: ADME, organism-based; details: in vivo
[27] = Half life in RjOrl:SWISS (CD1) mouse plasma at 20 mg/kg, po administered via gavage; type: ADME, organism-based
[28] = Cmax in RjOrl:SWISS (CD1) mouse plasma at 20 mg/kg, po administered via gavage; type: ADME, organism-based; set-up: dose 20 mg/kg, route oral
[29] = AUC in RjOrl:SWISS (CD1) mouse plasma at 20 mg/kg, po administered via gavage; type: ADME, organism-based
[30] = Oral bioavailability in RjOrl:SWISS (CD1) mouse plasma at 20 mg/kg administered via gavage; type: ADME, organism-based
Mus musculus [31] = test: Toxicity in RjOrl:SWISS (CD1) mouse at 2 mg/kg, iv; type: organism-based; details: in vivo
Mus musculus [32] = test: Toxicity in RjOrl:SWISS (CD1) mouse at 20 mg/kg, ip; type: organism-based; details: in vivo
Mus musculus [33] = test: Toxicity in RjOrl:SWISS (CD1) mouse at 20 mg/kg, po administered via gavage; type: organism-based; details: in vivo
[34] = Ratio of total Cmax in RjOrl:SWISS (CD1) mouse plasma at 20 mg/kg, ip to EC50 for antiproliferative activity against human NCI-H1975 cells harboring EGFR-L858R/T790M double mutant
Mus musculus [35] = test: Free Cmax in RjOrl:SWISS (CD1) mouse plasma at 20 mg/kg, ip; type: ADME, organism-based; details: in vivo
[36] = Ratio of free Cmax in RjOrl:SWISS (CD1) mouse plasma at 20 mg/kg, ip to EC50 for antiproliferative activity against human NCI-H1975 cells harboring EGFR-L858R/T790M double mutant
Mus musculus [37] = test: Time duration during which total plasma concentration stays above in vitro EC50 for human NCI-H1975 cells harboring EGFR-L858R/T790M double mutant in RjOrl:SWISS (CD1) mouse at 20 mg/kg, ip
Mus musculus [38] = test: Time duration during which free plasma concentration stays above in vitro EC50 for human NCI-H1975 cells harboring EGFR-L858R/T790M double mutant in RjOrl:SWISS (CD1) mouse at 20 mg/kg, ip
[39] = biological target: Epidermal growth factor receptor (Homo sapiens, UniProt P00533, L858R)
in vitro [40] = details: human, Caco-2
Description: Efflux ratio of apparent permeability from basolateral side to apical side over apical side to basolateral side over in human Caco2 cells at 5 uM incubated for 2 hrs

A-431 [41] = test: Antiproliferative activity against human A431 cells expressing wild type EGFR at 30 uM incubated for 96 hrs measured on day 5 by CellTiterGlo assay; type: cell-based; details: a-431, 96 h
HCC827 [42] = test: Antiproliferative activity against human HCC827 cells harboring EGFR-delE746_A750 mutant at 30 uM incubated for 96 hrs measured on day 5 by CellTiterGlo assay; type: functional, cell-based
NCI-H1975 [43] = test: Antiproliferative activity against human NCI-H1975 cells harboring EGFR-L858R/T790M double mutant at 30 uM incubated for 96 hrs measured on day 5 by CellTiterGlo assay; type: functional, cell-based

## C=CC(=O)N1CCC[C@@H](n2nc(-c3cccc4ccccc34)c3c(N)ncnc32)C1
A-431 [1]
  EC50: 29.4 µM
HCC827 [2]
  EC50: 500 nM
NCI-H1975 [3]
  EC50: 490 nM
[4]
  permeability: 82%
[5]
  remaining at 1 h, 5 µM: 100%
[6]
  remaining at 1 h, 5 µM: 90%
[7]
  fraction unbound at 6 h, 5 µM: 0.15
A549 [8]
  Activity: Non-Toxic
[9]
  solubility kinetic at 1.5 h, 500 µM: 38 µM (≈ 15.1 µg/mL)
[10]
  Activity: Active
[11]
  IC50: 60 nM
[12]
  IC50: 2 nM
In vitro [13]
  microsomal CLint at 50 min, 3 µM: 2770 µL/min/mg
In vitro [14]
  microsomal CLint at 50 min, 3 µM: 770 µL/min/mg

## C=CC(=O)Nc1cccc(Nc2nc(Nc3ccc(N4CCN(C(C)=O)CC4)cc3OC)ncc2C(F)(F)F)c1 [ROCILETINIB]
HCC827 [2]
  EC50: 45 nM
NCI-H1975 [3]
  EC50: 100 nM
[4]
  permeability: 88%
[15]
  Papp A→B at 2 h, 5 µM: 0.05 ×10⁻⁶ cm/s
[16]
  Papp B→A at 2 h, 5 µM: 0.068 ×10⁻⁶ cm/s
[5]
  remaining at 1 h, 5 µM: 78%
[6]
  remaining at 1 h, 5 µM: 75%
[7]
  fraction unbound at 6 h, 5 µM: 0.01
[9]
  solubility kinetic at 1.5 h, 500 µM: 10 µM (≈ 5.56 µg/mL)
In vitro [13]
  microsomal CLint at 50 min, 3 µM: 81 µL/min/mg
In vitro [14]
  microsomal CLint at 50 min, 3 µM: 5.1 µL/min/mg

## C=CC(=O)Nc1cc(Nc2nccc(-c3cn(C)c4ccccc34)n2)c(OC)cc1N(C)CCN(C)C [OSIMERTINIB]
HCC827 [2]
  EC50: […]
NCI-H1975 [3]
  EC50: […]
A549 [17]
  EC50: […]
[4]
  permeability: 112%
[15]
  Papp A→B at 2 h, 5 µM: […]
[16]
  Papp B→A at 2 h, 5 µM: […]
[5]
  remaining at 1 h, 5 µM: […]
[6]
  remaining at 1 h, 5 µM: […]
[7]
  fraction unbound at 6 h, 5 µM: 0.03
[9]
  solubility kinetic at 1.5 h, 500 µM: 265 µM (≈ 132 µg/mL)
In vitro [13]
  microsomal CLint at 50 min, 3 µM: […]
In vitro [14]
  microsomal CLint at 50 min, 3 µM: 4.1 µL/min/mg

## C=CC(=O)N1CCC[C@@H](n2nc(-c3cn(C)c4ccccc34)c3c(N)ncnc32)C1
A-431 [1]
  EC50: 6.78 µM
HCC827 [2]
  EC50: 90 nM
NCI-H1975 [3]
  EC50: 230 nM
A549 [17]
  EC50: 23.3 µM
[4]
  permeability: 66%
[15]
  Papp A→B at 2 h, 5 µM: 0.3 ×10⁻⁶ cm/s
[16]
  Papp B→A at 2 h, 5 µM: 0.29 ×10⁻⁶ cm/s
[5]
  remaining at 1 h, 5 µM: 95%
[6]
  remaining at 1 h, 5 µM: 100%
[7]
  fraction unbound at 6 h, 5 µM: 0.12
[18]
  Vd: 12.4 L/kg
[19]
  clearance: 277 mL/min/kg
[20]
  AUC: 121 ng·h/mL
[21]
  C0: 138 ng/mL
[22]
  half-life: 36 min
[23]
  half-life: 14.4 min
[24]
  Cmax: 4540 ng/mL
[25]
  AUC: 1890 ng·h/mL
Mus musculus [26]
  F: 156%
[27]
  half-life: 35.4 min
[28]
  Cmax: 38 ng/mL
[29]
  AUC: 29 ng·h/mL
[30]
  bioavailability: 2.4%
[9]
  solubility kinetic at 1.5 h, 500 µM: 364 µM (≈ 146 µg/mL)
Mus musculus [31]
  Activity: Non-Toxic
Mus musculus [32]
  Activity: Non-Toxic
Mus musculus [33]
  Activity: Non-Toxic
[34]
  Ratio: 50
Mus musculus [35]
  fCmax: 1.36 µM
[36]
  Ratio: 6
Mus musculus [37]
  Time: 75 min
Mus musculus [38]
  Time: 30 min
[10]
  Activity: Active
[11]
  IC50: 40 nM
[39]
  IC50: 2 nM
[12]
  IC50: 3 nM
In vitro [40]
  efflux ratio at 2 h, 5 µM: 1
In vitro [13]
  microsomal CLint at 50 min, 3 µM: 1980 µL/min/mg
In vitro [14]
  microsomal CLint at 50 min, 3 µM: 462 µL/min/mg

## CCC(=O)N1CCC[C@@H](n2nc(-c3ccccc3)c3c(N)ncnc32)C1
A-431 [41]
  Activity: Non-Toxic
HCC827 [42]
  Activity: inactive
NCI-H1975 [43]
  Activity: inactive
A549 [8]
  Activity: Non-Toxic
[11]
  IC50: 7300 nM
[39]
  IC50: 4700 nM
[12]
  IC50: > 10000 nM

## C=CC(=O)N1CCC[C@@H](n2nc(-c3ccc4ccccc4c3)c3c(N)ncnc32)C1
A-431 [1]
  EC50: 3.6 µM
HCC827 [2]
  EC50: < 14 nM
NCI-H1975 [3]
  EC50: 140 nM
A549 [17]
  EC50: 11.6 µM
[4]
  permeability: 73%
[15]
  Papp A→B at 2 h, 5 µM: 0.51 ×10⁻⁶ cm/s
[16]
  Papp B→A at 2 h, 5 µM: 0.13 ×10⁻⁶ cm/s
[5]
  remaining at 1 h, 5 µM: 94%
[6]
  remaining at 1 h, 5 µM: 86%
[7]
  fraction unbound at 6 h, 5 µM: 0.02
[9]
  solubility kinetic at 1.5 h, 500 µM: 248 µM (≈ 98.8 µg/mL)
[10]
  Activity: Active
[11]
  IC50: 20 nM
[39]
  IC50: 1 nM
[12]
  IC50: < 1 nM
In vitro [40]
  efflux ratio at 2 h, 5 µM: 0.3
In vitro [13]
  microsomal CLint at 50 min, 3 µM: 2310 µL/min/mg
In vitro [14]
  microsomal CLint at 50 min, 3 µM: 770 µL/min/mg

## CCC(=O)N1CCC[C@@H](n2nc(-c3cccc(C(F)(F)F)c3)c3c(N)ncnc32)C1
A-431 [41]
  Activity: Non-Toxic
HCC827 [42]
  Activity: inactive
NCI-H1975 [43]
  Activity: inactive
A549 [8]
  Activity: Non-Toxic
[11]
  IC50: > 10000 nM
[39]
  IC50: > 10000 nM
[12]
  IC50: > 10000 nM
